Measured values taken from patent US8236794B2, “Treatment of mesothelioma” (Ed. Geistlich Soehne AG fuer Chemische Industrie, priority 2003, dated 2012).
Entries after “also recorded” stand apart in the source; their conditions may differ.

Columns and labels:
[1] = test system: human malignant glioma cell line LN-229; experiment: Cell viability and Fas-ligand mediated apoptosis in glioma cells; type: cell-based; details: LN-229 cells; for Effect on destruction of cells by Fas-ligand: combined with Fas-ligand
Experimental: The present invention relates to the ability of methylol transfer agents, such as taurolidine, to induce cell toxicity, and to enhance Fas-ligand mediated apoptosis. Both taurolidine and its congener taurultam enhance the apoptotic effect of Fas-ligand in cancer cells at drug concentrations which per se show practically no effect on cell viability. For example, in the human malignant glioma cell line LN-229 cell viability was reduced directly following incubation with taurolidine or taurultam alone. […] Thus, the use of methylol transfer agents to induce apoptotic cell death provides a means for treating mesothelioma as in the present invention.

malignant mesothelioma = experiment: Therapy of mesothelioma with taurolidine: single-patient case, two treatment cycles, intravenous plus intrapleural; type: in vivo, human
From the text: The following is a case involving treatment of an individual for two treatment cycles. Patient: Diagnosis: Malignant mesothelioma two yrs. ago (stage III according to IMIG stadiation) Prior treatments: Treated with CT with Cis-Platinum/Gemcitabine, Local recurrency with pleural effusion. Treated with taurolidine 2%, Two cycles of three weeks with taurolidine both intravenous and intrapleural administration I.V: 4 bottles daily for 5 days for three weeks (2 cycles) I.P: 1 bottle daily for 5 days for three weeks (2 cycles)

[2] = cited from earlier work

Compound: O=S1(=O)CCNCN1 [taurultam]
- Effect on destruction of cells by Fas-ligand [1]: enhanced the destruction of LN-229 cells by Fas-ligand
- Cell viability following incubation with compound alone [1]: reduced

Compound: O=S1(=O)CCN(CN2CCS(=O)(=O)NC2)CN1 [taurolidine, Bis-(1,1-dioxoperhydro-1,2,4-thiadiazinyl-4)methane]
- Main side effects, I.P. (intrapleural) administration (malignant mesothelioma; I.P. 1 bottle taurolidine 2% daily for 5 days for three weeks (2 cycles)): Local burning at the site of instillation; also recorded: Thoracic burning of significant grade
- Main side effects, I.V. administration (malignant mesothelioma; I.V. 4 bottles taurolidine 2% daily for 5 days for three weeks (2 cycles)): Mild local burning at the site of instillation; also recorded: Transient symptomatic hypthension
- Side effects obliging discontinuance of the treatment (malignant mesothelioma; I.V. and I.P. administration, 2 cycles): None
- Clinical response (malignant mesothelioma; same patient and regimen, preliminary response evaluation): Highly significant reduction of the dyspnea
- Patient's condition after treatment (malignant mesothelioma; two treatment cycles, I.V. and I.P.): marked improvement
- Effect on destruction of cells by Fas-ligand [1]: enhanced the destruction of LN-229 cells by Fas-ligand
- Cell viability following incubation with compound alone [1]: reduced
- Water solubility [2]: up to 2%
